Results as given in the supplement of paper PMC11451515.

System: NOMO1
Experiment: cell viability relative to DMSO control; higher = less cytotoxic
Details: 48 h
Method in brief: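 NOMO1, SEM and P12-Ichikawa leukemia cells spent at least four passages adapting to each medium before use. They were seeded at 500 cells/well (NOMO1, SEM) or 1000 cells/well (P12-Ichikawa) in 5 μl in 1536-well plates and pin-dosed with library compounds in DMSO at 11 threefold steps from 47 μM down to 0.79 nM. After 48 h at 37°C, CellTiter-Glo One luminescence was read. Viability is reported as a percentage of the DMSO wells on each plate, with cell-free wells as background.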

[1] = HPLM + 10% dialyzed FBS, 0.000781 µM
[2] = HPLM + 10% dialyzed FBS, 0.00234 µM
[3] = HPLM + 10% dialyzed FBS, 0.00702 µM
[4] = HPLM + 10% dialyzed FBS, 0.0211 µM
[5] = HPLM + 10% dialyzed FBS, 0.0632 µM
[6] = HPLM + 10% dialyzed FBS, 0.19 µM
[7] = HPLM + 10% dialyzed FBS, 0.569 µM
[8] = HPLM + 10% dialyzed FBS, 1.71 µM
[9] = HPLM + 10% dialyzed FBS, 5.12 µM
[10] = HPLM + 10% dialyzed FBS, 15.4 µM
[11] = HPLM + 10% dialyzed FBS, 46.1 µM
[12] = RPMI 5 mM glucose + 10% FBS, 0.000781 µM
[13] = RPMI 5 mM glucose + 10% FBS, 0.00234 µM
[14] = RPMI 5 mM glucose + 10% FBS, 0.00702 µM
[15] = RPMI 5 mM glucose + 10% FBS, 0.0211 µM
[16] = RPMI 5 mM glucose + 10% FBS, 0.0632 µM
[17] = RPMI 5 mM glucose + 10% FBS, 0.19 µM
[18] = RPMI 5 mM glucose + 10% FBS, 0.569 µM
[19] = RPMI 5 mM glucose + 10% FBS, 1.71 µM
[20] = RPMI 5 mM glucose + 10% FBS, 5.12 µM
[21] = RPMI 5 mM glucose + 10% FBS, 15.4 µM
[22] = RPMI 5 mM glucose + 10% FBS, 46.1 µM
[23] = RPMI 5 mM glucose + 10% dialyzed FBS, 0.000781 µM
[24] = RPMI 5 mM glucose + 10% dialyzed FBS, 0.00234 µM
[25] = RPMI 5 mM glucose + 10% dialyzed FBS, 0.00702 µM
[26] = RPMI 5 mM glucose + 10% dialyzed FBS, 0.0211 µM
[27] = RPMI 5 mM glucose + 10% dialyzed FBS, 0.0632 µM
[28] = RPMI 5 mM glucose + 10% dialyzed FBS, 0.19 µM
[29] = RPMI 5 mM glucose + 10% dialyzed FBS, 0.569 µM
[30] = RPMI 5 mM glucose + 10% dialyzed FBS, 1.71 µM
[31] = RPMI 5 mM glucose + 10% dialyzed FBS, 5.12 µM
[32] = RPMI 5 mM glucose + 10% dialyzed FBS, 15.4 µM
[33] = RPMI 5 mM glucose + 10% dialyzed FBS, 46.1 µM

SMILES | cell viability [1] | cell viability [2] | cell viability [3] | cell viability [4] | cell viability [5] | cell viability [6] | cell viability [7] | cell viability [8] | cell viability [9] | cell viability [10] | cell viability [11] | cell viability [12] | cell viability [13] | cell viability [14] | cell viability [15] | cell viability [16] | cell viability [17] | cell viability [18] | cell viability [19] | cell viability [20] | cell viability [21] | cell viability [22] | cell viability [23] | cell viability [24] | cell viability [25] | cell viability [26] | cell viability [27] | cell viability [28] | cell viability [29] | cell viability [30] | cell viability [31] | cell viability [32] | cell viability [33]
C=CCc1cc(OC)c(O)c(C(=O)NCCO)c1 | 98.4% | 113% | 96% | 105% | 105% | 113% | 107% | 106% | 85.7% | 81.4% | 74.2% | 95.3% | 112% | 103% | 96.1% | 101% | 101% | 96.1% | 106% | 93.4% | 101% | 87.1% | 98.5% | 99.5% | 104% | 106% | 109% | 98.6% | 89.7% | 96.7% | 87.7% | 84% | 79.5%
Cc1cc(-c2nnc3n2CCCCC3)c(C)n1-c1ccccc1 | 116% | 122% | 136% | 131% | 121% | 125% | 148% | 132% | 117% | 120% | 108% | 112% | 112% | 109% | 122% | 115% | 120% | 118% | 114% | 117% | 116% | 110% | 115% | 120% | 110% | 114% | 124% | 113% | 116% | 121% | 111% | 122% | 120%
COC1=CC(=CC=C1)C2=CC=C(NC(=O)/C3=C(/CCC3)C(O)=O)C(=C2)F | 122% | 114% | 128% | 113% | 105% | 87.8% | 115% | 112% | 103% | 100% | 92.1% | 102% | 109% | 103% | 97.8% | 96.3% | 116% | 99.2% | 109% | 104% | 96% | 84.7% | 115% | 105% | 122% | 121% | 120% | 121% | 113% | 107% | 106% | 102% | 63.8%
C[C@]12CC[C@@H]3c4ccc(O)cc4CC[C@H]3[C@@H]1CC[C@@H]2O | 124% | 124% | 124% | 112% | 117% | 115% | 117% | 116% | 112% | 56.3% | 46.9% | – | – | – | – | – | – | – | – | – | – | – | 107% | 116% | 105% | 133% | 128% | 116% | 104% | 103% | 104% | 91.8% | 35.6%
CC(=O)Oc1cc2c(s1)CCN(C(C(=O)C1CC1)c1ccccc1F)C2.Cl (stereo not drawn) | 90.3% | 106% | 104% | 117% | 98.3% | 107% | 116% | 64.7% | 58% | 42.7% | 16% | 98.5% | 92.7% | 95.5% | 94.3% | 97.3% | 108% | 91.1% | 76.8% | 64.4% | 51.7% | 18.7% | 88% | 95.6% | 100% | 101% | 90.4% | 99.6% | 103% | 86.4% | 62.1% | 40.3% | 25.1%
CN(c1nccc(=O)[nH]1)C1CCN(c2nc3ccccc3n2Cc2ccc(F)cc2)CC1 | 90% | 104% | 116% | 117% | 128% | 124% | 116% | 120% | 105% | 111% | 99.1% | 104% | 101% | 112% | 104% | 114% | 115% | 130% | 126% | 117% | 108% | 105% | 109% | 108% | 105% | 121% | 114% | 116% | 122% | 121% | 114% | 131% | 90.8%
O=P1(N(CCCl)CCCl)NCCCO1 (stereo not drawn) | 134% | 106% | 108% | 115% | 101% | 112% | 122% | 120% | 97.6% | 91% | 75.7% | 108% | 98.4% | 110% | 99.7% | 102% | 103% | 97.8% | 87.3% | 91.4% | 50.5% | 47.5% | 85.1% | 110% | 99.7% | 119% | 119% | 112% | 103% | 110% | 84.9% | 54% | 50.7%
CC(C)(C)Cn1c(N)nc2ccc(-c3[nH]c(C(C)(C)C)nc3-c3ccc(F)cc3)nc21 | 84.9% | 84.6% | 79.9% | 78.4% | 90.8% | 81% | 83.6% | 64.3% | 75.3% | 64.7% | 49.6% | 84.3% | 88.4% | 76.3% | 75.9% | 90.8% | 79.9% | 82.9% | 87.2% | 79.5% | 83.2% | 76.4% | 85.3% | 92.7% | 93.5% | 92.2% | 87.7% | 90.3% | 73.1% | 73.3% | 92% | 81.2% | 71.4%
